A word on the IC50: it is the concentration needed to halve the response being measured. By LC50 is commonly meant the concentration lethal to half of the exposed cells or organisms. Low readings indicate a more lethal substance, high ones a less lethal substance.

The test system of one series is HeLa. The series is described as follows: Cytotoxicity against human HeLa cells after 24 hrs by MTT colorimetric assay. Type of series: functional, cell-based. A general note: Tetrazolium assays rely on reduction of a dye to a coloured formazan, in cell work by metabolically active cells.
For the next series, the system named is MDA-MB-231. In words: Cytotoxicity against human MDA-MB-231 cells after 24 hrs by MTT colorimetric assay. Type of series: functional, cell-based. Conditions: MDA-MB-231, 24 h.
The nature of series [1]: Cytotoxicity against human MIAPaCa2 cells after 24 hrs by MTT colorimetric assay. Type of series: functional, cell-based. As to conditions: MIA PaCa-2, 24 h.
The test system of the next series is NCI-H1975. The series is described as follows: Cytotoxicity against human NCI-H1975 cells after 24 hrs by MTT colorimetric assay. In kind it is functional, cell-based. Conditions: NCI-H1975, 24 h.
The next series deals with HUVEC. In words: Cytotoxicity against HUVEC cells after 48 hrs by SRB staining assay. Type of series: cell-based. As to conditions: human.
A further series relates to NHDF. The series is described as follows: Cytotoxicity against NHDF cells after 48 hrs by SRB staining assay. In kind it is cell-based. As to conditions: human.
The target in series [2] is Sigma non-opioid intracellular receptor 1 (Homo sapiens, UniProt Q99720). In words: Displacement of [3H]-(+)-pentazocine from sigma-1 receptor in human Jurkat cell membrane by liquid scintillation spectrometry. Type of series: cell membranes. Background: Displacement assays read how much labelled ligand stays bound in the presence of the test substance.
Chain of Sigma non-opioid intracellular receptor 1 (Q99720 whole entry): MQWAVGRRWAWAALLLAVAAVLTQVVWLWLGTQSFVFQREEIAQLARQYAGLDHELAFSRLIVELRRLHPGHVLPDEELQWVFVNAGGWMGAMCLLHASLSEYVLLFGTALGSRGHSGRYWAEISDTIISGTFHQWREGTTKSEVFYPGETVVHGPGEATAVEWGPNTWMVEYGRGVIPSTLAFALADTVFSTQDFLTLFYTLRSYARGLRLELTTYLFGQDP
Series [3] is described as follows: Displacement of [3H]-DTG from sigma-2 receptor in rat cerebral cortex membranes in presence of (+)-pentazocine by liquid scintillation spectrometry. In kind it is cell membranes, Membrane.
In a further series the test system is Jurkat. The series is described as follows: Selectivity ratio of IC50 for sigma-2 receptor in rat cerebral cortex membranes to IC50 for sigma-1 receptor in human Jurkat cell membrane. In kind it is cell-based.
Series [4] is described as follows: Displacement of [3H]BTX-B from neuronal Na+ channel in male Sprague-Dawley rat brain synaptosomal membrane vesicles by liquid scintillation spectrometry. Type of series: tissue-based.

Structures are written as SMILES.

In the case of `Fc1ccc(C2(N3CCNCC3)C3CC4CC(C3)CC2C4)cc1.O=C(O)/C=C\C(=O)O` (centres undefined), the IC50 in the series with HeLa was 12.9 µM; in the series on MDA-MB-231, 14.6 µM; in series [1], 11.7 µM; in the series with NCI-H1975, 12.8 µM. For the same compound, the values for the median lethal concentration (LC50) in the series on HUVEC and with NHDF were above 100 µM and 93.66 µM, respectively.
With `O=C(O)/C=C\C(=O)O.c1ccc(C2(N3CCNCC3)C3CC4CC(C3)CC2C4)cc1` (centres undefined), the half-maximal inhibitory concentration (IC50) with HeLa amounted to 9.2 µM; with MDA-MB-231, 8.4 µM; in series [1] it was 12.3 µM; in the series on NCI-H1975, 17.3 µM. The LC50 worked out at 95.45 µM in the series on HUVEC and 90 µM with NHDF.
Regarding `O=C(c1ccc(Cl)s1)N1CCN(C2(c3ccccc3)C3CC4CC(C3)CC2C4)CC1` (centres undefined), the concentration for half-maximal inhibition (IC50) in the series with HeLa was 12.8 µM; in the series on MDA-MB-231, 11.4 µM; in series [1] it was 12.4 µM; in the series on NCI-H1975, 12.7 µM.
In the case of `O=C(CN1CCCCC1)N1CCN(C2(c3ccc(F)cc3)C3CC4CC(C3)CC2C4)CC1` (centres undefined), the IC50 came to 8.4 µM in the series with HeLa, 6.8 µM in the series with MDA-MB-231, 14.6 µM in [1] and 12.7 µM in the series with NCI-H1975. Moreover, the LC50 in the series with HUVEC amounted to 88.78 µM; in the series with NHDF, 85.26 µM.
On to `CCOC(=O)N1CCN(C2(c3ccccc3)C3CC4CC(C3)CC2C4)CC1` (centres undefined), for which the half-maximal inhibitory concentration (IC50) with HeLa came to 23 µM; in the series on MDA-MB-231, 28 µM; in series [1], 25.4 µM; with NCI-H1975, 24.2 µM. Moreover, the figures for the LC50 with HUVEC and in the series with NHDF were above 100 µM and 100 µM, respectively.
As for `O=C(N1CCN(C2(c3ccccc3)C3CC4CC(C3)CC2C4)CC1)n1ccnc1` (centres undefined), the concentration for half-maximal inhibition (IC50) in the series with HeLa was found to be 12.2 µM; in the series with MDA-MB-231 it was 13.5 µM; in [1], 13.5 µM; in the series on NCI-H1975, 10.5 µM. Besides, the 50% lethal concentration (LC50) was above 100 µM with HUVEC and 98.16 µM in the series with NHDF.
As to `CCOC(=O)N1CCN(C2(c3ccc(F)cc3)C3CC4CC(C3)CC2C4)CC1` (centres undefined), the IC50 turned out to be 14.5 µM with HeLa, 21 µM in the series with MDA-MB-231, 18.5 µM in series [1] and 17.5 µM with NCI-H1975.
`CN1CCN(C2(c3ccc(F)cc3)C3CC4CC(C3)CC2C4)CC1` (centres undefined): the concentration for half-maximal inhibition (IC50) came to 15.3 µM in the series on HeLa, 15.7 µM with MDA-MB-231, 16.6 µM in [1] and 14.6 µM in the series on NCI-H1975.
With `O=C(CN1CCCCC1)N1CCN(C2(c3ccccc3)C3CC4CC(C3)CC2C4)CC1` (centres undefined), the half-inhibitory concentration (IC50) stood at 12.4 µM with HeLa; 11.4 µM with MDA-MB-231; 12.2 µM in [1]; 16.3 µM in the series with NCI-H1975; 135 nM in [2]; 3.34 µM in [3]. Also, the IC50 in [4] is 2440 nM. In addition, the median lethal concentration (LC50) with HUVEC was 60.35 µM; in the series with NHDF it was 58.43 µM. Moreover, the Ratio IC50 in the series on Jurkat worked out at 24.7.
`CN1CCN(C2(c3ccccc3)C3CC4CC(C3)CC2C4)CC1` (centres undefined): the IC50 was found to be 17.4 µM in the series with HeLa, 17.4 µM in the series on MDA-MB-231, 19.5 µM in series [1] and 18.7 µM in the series with NCI-H1975.
With `Nc1ccn([C@@H]2O[C@H](CO)[C@@H](O)C2(F)F)c(=O)n1` [GEMCITABINE], the IC50 turned out to be 3.3 µM in the series on HeLa, 0.19 µM in the series with MDA-MB-231 and 0.6 µM in series [1].
